Assays:
CLK2 = target: T1, CLK2 (Homo sapiens, UniProt P49760); assay: Biochemical assay for inhibitors of CLK2 kinase activity (ADP-Glo); details: 20 nM CLK2, 50 μM peptide substrate, 100 μM ATP, read-out: Assay 2: CLK2 Enzyme IC50
T1 construct: purchased Carna Biosciences 04-127

CK2α = target: T2, CK2α (Homo sapiens, UniProt P68400); assay: Biochemical assay for inhibitors of CK2α kinase activity (ADP-Glo); details: 0.2 nM CK2α, 50 μM peptide substrate, 15 μM ATP, read-out: Assay 1: CK2α Enzyme IC50
T2 construct: CK2α (residues 2-329) was produced in Escherichia coli BL21 (DE3) for kinase activity screening; His6 (N, cleaved yes); made in house; host or cells: Escherichia coli BL21 (DE3)
T2 sequence (P68400 2-329): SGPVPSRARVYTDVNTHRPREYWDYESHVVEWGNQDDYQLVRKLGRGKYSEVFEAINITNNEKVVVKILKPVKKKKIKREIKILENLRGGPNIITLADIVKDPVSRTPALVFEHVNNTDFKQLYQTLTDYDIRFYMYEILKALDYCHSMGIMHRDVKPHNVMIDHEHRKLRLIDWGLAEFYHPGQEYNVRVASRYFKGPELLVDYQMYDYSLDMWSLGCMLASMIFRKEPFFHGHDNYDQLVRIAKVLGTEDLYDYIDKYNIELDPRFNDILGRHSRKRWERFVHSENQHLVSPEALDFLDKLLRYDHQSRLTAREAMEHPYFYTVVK

intracellular CK2α = target: T3, intracellular CK2α (Homo sapiens, UniProt P19784); assay: Cell-based NanoBRET assay for inhibitor binding to intracellular CK2α; details: HCT116 cells transiently transfected with CSNK2A2-NanoLuc fusion vector; Tracer K-5; 2 h; read-out: Assay 3: NanoBRET ™ assay for binding to intracellular CK2α
T3 construct: host or cells: HCT116 (ATCC CCL-247)
T3 sequence (P19784 whole entry, the tested form may be a part): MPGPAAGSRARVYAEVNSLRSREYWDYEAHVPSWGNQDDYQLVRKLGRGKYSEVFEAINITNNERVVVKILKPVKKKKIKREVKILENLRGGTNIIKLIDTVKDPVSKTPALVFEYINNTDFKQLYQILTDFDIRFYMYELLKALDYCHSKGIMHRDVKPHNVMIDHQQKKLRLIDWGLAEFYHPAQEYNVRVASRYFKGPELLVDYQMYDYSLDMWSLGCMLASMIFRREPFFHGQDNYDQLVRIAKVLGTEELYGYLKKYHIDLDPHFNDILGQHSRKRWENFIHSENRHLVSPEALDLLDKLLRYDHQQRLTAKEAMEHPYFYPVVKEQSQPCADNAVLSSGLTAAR
Outline: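 Living cells expressing NanoLuc-CK2α fusion were given a fixed tracer concentration, and compounds competitively displaced the reversibly bound tracer. Donor (450 nm) and acceptor (610 or 630 nm) emissions were read; BRET ratio = (acceptor/donor)×1,000, giving apparent intracellular affinity.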

T1 sequence (P49760 whole entry): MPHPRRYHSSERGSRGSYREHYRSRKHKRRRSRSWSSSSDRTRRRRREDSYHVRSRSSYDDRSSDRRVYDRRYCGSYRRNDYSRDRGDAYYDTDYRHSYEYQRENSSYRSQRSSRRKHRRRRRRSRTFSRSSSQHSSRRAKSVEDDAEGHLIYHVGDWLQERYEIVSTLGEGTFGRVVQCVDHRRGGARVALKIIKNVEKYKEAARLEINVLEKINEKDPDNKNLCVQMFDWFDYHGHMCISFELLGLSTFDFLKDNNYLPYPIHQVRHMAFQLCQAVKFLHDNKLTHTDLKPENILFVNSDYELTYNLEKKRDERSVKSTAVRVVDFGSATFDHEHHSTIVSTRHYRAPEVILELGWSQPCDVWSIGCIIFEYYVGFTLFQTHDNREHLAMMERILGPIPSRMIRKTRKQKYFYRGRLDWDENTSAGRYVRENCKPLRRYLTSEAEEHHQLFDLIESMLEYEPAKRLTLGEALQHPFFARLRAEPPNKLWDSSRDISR

Compound | IC50 (CLK2) [nM] | IC50 (CK2α) [nM] | IC50 (intracellular CK2α) [nM]
Fc1cc(CNCCCCOCCNc2cc(-n3cnnc3)c(Cl)c3[nH]ncc23)cc(F)c1OC(F)(F)F [Example 182, 7-chloro-N-(2-(4-((3,5-difluoro-4-(trifluoromethoxy)benzyl)amino)butoxy)ethyl)-6-(4H-1,2,4-triazol-4-yl)-1H-indazol-4-amine] | 1820 | 29.6 | 5410
FC(F)(F)c1ccc2[nH]c(CNCCCCOCCOc3cc(-c4ccnnc4)cc4[nH]nnc34)cc2c1 [Example 101, 4-(2-((6-(pyridazin-4-yl)-1H-benzo[d][1,2,3]triazol-4-yl)oxy)ethoxy)-N-((5-(trifluoromethyl)-1H-indol-2-yl)methyl)butan-1-amine] | 48600 | 223 | > 50000
O=C(CCNCc1ccc(-c2ccccc2)c(Cl)c1)NCCCNc1cc(-n2cncn2)cc2[nH]ncc12 [Example 4, N-(3-((6-(1H-1,2,4-triazol-1-yl)-1H-indazol-4-yl)amino)propyl)-3-(((2-chloro-[1,1′-biphenyl]-4-yl)methyl)amino)propanamide] | 1010 | 3.63 | 242
O=C(COCCCCNCc1ccc(OC(F)(F)F)c(Cl)c1)Nc1cc(-n2cnnc2)cc2[nH]ncc12 [Example 48, N-(6-(4H-1,2,4-triazol-4-yl)-1H-indazol-4-yl)-2-(4-((3-chloro-4-(trifluoromethoxy)benzyl)amino)butoxy)acetamide] | 993 | 20.3 | 2750
O=C(CCNCc1ccc(C2CC2)c(CO)c1)NCCCNc1cc(-n2cnnc2)cc2[nH]ncc12 [Example 77, N-(3-((6-(4H-1,2,4-triazol-4-yl)-1H-indazol-4-yl)amino)propyl)-3-((4-cyclopropyl-3-(hydroxymethyl)benzyl)amino)propanamide] | 95.7 | 5.71 | > 50000

More lines, now with the values ahead:

IC50 (CLK2) [nM] | IC50 (CK2α) [nM] | IC50 (intracellular CK2α) [nM] | Compound
81.2 | 0.64 | 208 | O=C(CCNCc1ccc(OC(F)(F)F)c(Cl)c1)NCCCNc1cc(-c2cn[nH]c(=O)c2)cc2[nH]ncc12 [Example 168, 3-((3-chloro-4-(trifluoromethoxy)benzyl)amino)-N-(3-((6-(6-oxo-1,6-dihydropyridazin-4-yl)-1H-indazol-4-yl)amino)propyl)propanamide]
1520 | 256 | > 50000 | O=C(CCOCCCNCc1ccc(OC(F)(F)F)c(Cl)c1)Nc1cc(-n2cnnc2)cc2[nH]ncc12 [Example 70, N-(6-(4H-1,2,4-triazol-4-yl)-1H-indazol-4-yl)-3-(3-((3-chloro-4-(trifluoromethoxy)benzyl)amino)propoxy)propanamide]
2780 | 8.26 | 3840 | O=C(CNCCCCNCc1ccc(OC(F)(F)F)c(Cl)c1)Nc1cc(-n2cnnc2)cc2[nH]ncc12 [Example 17, N-(6-(4H-1,2,4-triazol-4-yl)-1H-indazol-4-yl)-2-((4-((3-chloro-4-(trifluoromethoxy)benzyl)amino)butyl)amino)acetamide]
614 | 11 | 738 | O=C(CCNCc1ccc(OC(F)(F)F)c(Cl)c1)NCCCNc1cc(-c2ccncc2)c(Cl)c2[nH]ncc12 [Example 158, 3-((3-chloro-4-(trifluoromethoxy)benzyl)amino)-N-(3-((7-chloro-6-(pyridin-4-yl)-1H-indazol-4-yl)amino)propyl)propanamide]
6390 | 6.64 | > 50000 | O=C(CCNCc1ccc(OC(F)(F)F)c(Cl)c1)NCCCNc1cc(-c2cc[nH]c(=O)n2)cc2[nH]ncc12 [Example 170, 3-((3-chloro-4-(trifluoromethoxy)benzyl)amino)-N-(3-((6-(2-oxo-1,2-dihydropyrimidin-4-yl)-1H-indazol-4-yl)amino)propyl)propanamide]
214 | 12.7 | 467 | OCCOc1cc(CNC2CC(COCCNc3cc(-c4cnns4)cc4[nH]ncc34)C2)cc(OC(F)(F)F)c1 (stereo not drawn) [Example 205]
